One data set relates to viral tilted peptide. Put plainly: fusion process induced on LUV by the viral tilted peptide (analogues). The settings on record: at the doses tested. The source says: The same in vitro study as in Example 1 was used to investigate two analogues (levetiracetam and (R)-(−)-alpha-ethyl-2-oxo-1-pyrrolidine acetamide) in comparison with piracetam.
Another data set deals with acute viral hepatitis. Put plainly: Effect of piracetam on patients exhibiting acute viral hepatitis. The data set is classed as in vivo. The procedure:
110 patients with acute hepatitis, hospitalised from the first or the second week of icterus, were included in the study. All patients were assigned to rest, and received diet and vitamins.
A first group received piracetam at a daily dose of 2.4 g (3×0.8 g/day), a second group received no piracetam and acted as control group. The main parameters were serum bilirubine and transaminases, measured once a week during the whole icterus period.
Inclusion criteria were bilirubine ([…]) (N<0.3) and transaminases (>400 U) (N<40).
The criteria for a positive response were bilirubine <1.5 mg/dl and transaminases <100 U.

The subject of a further data set is hepatitis C virus (HCV). The data set can be described thus: Effect of piracetam on patients exhibiting chronic C virus hepatitis. The class given is in vivo. The text has this:
6 patients with chronic transfusion associated hepatitis C virus (HCV) received 6 months therapy with piracetam at a daily dose of 10.8 g (3×3.6 g/d) with no other treatment associated. This was followed by a 3 months period of no treatment. All patients, interferon non-responders, had chronic hepatitis from 6 to 19 years. The main criterion of efficacy was serum viral load (HCV-RNA) performed by polymerase chain reaction (PCR) at 0, 3, 6 and 9 months. These patients had manifested a gradual rise in their HCV-RNA. Thus, the criteria for no response was defined as no change in the increase of HCV-RNA, a positive response as a status quo of serum HVC-RNA and a significant response as a decrease of at least half a log of HCV-RNA.

Data set [1] relates to A-201 cells devoid of CD4 receptors. Put plainly: formation of syncitia by fusion of infected cells with uninfected neighbouring cells, A-201 cells. Conditions: no CD4 receptor, accordingly to the doses used. The data set is classed as cell-based, HIV. The source says:
(§1) HV has the property on cultured cells to provoke the formation of syncitia by fusion of infected cells with uninfected neighboring cells, when the virus ends its replication.
(§2) Virus have become remarkably opportunistic in exploring whatever complicated shapes they may find on the host cell surface as binding receptors (e.g. CD4, CXCR4, CCR5, CKR-5, CKR-3).
(§3) This study therefore investigated the ability of piracetam to inhibit the formation of syncitia, […], the primary binding receptor of HIV. For this purpose, two cultures of cells were used, A-201 cells devoid of CD4 receptors and SUP-Ti cells presenting CD4 receptors.

Data set [2] concerns SUP-Ti cells presenting CD4 receptors. The data set can be described thus: formation of syncitia by fusion of infected cells with uninfected neighbouring cells, SUP-Ti cells. The class given is cell-based, HIV. Conditions: CD4 receptor present, accordingly to the doses used.
Text: as §1, §2, §3

Data set [3] has as its target T1, titled peptide of HUV-wt (wild type)(16 AA) (Human immunodeficiency virus type 1 group M subtype B, UniProt P04578).
T1 construct: titled peptide of HUV-wt (wild type)(16 AA)
The data set can be described thus: fusion of large unilamellar vesicles (LUV) provoked by tilted peptide of HUV-wt. Also noted: species or system HIV. Conditions: at the doses tested.

Data set [4] concerns the target titled peptide of SIV-wt (12AA) (Simian immunodeficiency virus, UniProt P05885). The data set can be described thus: fusion of large unilamellar vesicles (LUV) provoked by tilted peptide of SIV-wt. The settings on record: at the doses tested.
Data set [5] deals with T2, Alzheimer's β-amyloid tilted peptide 29-40 (Homo sapiens, UniProt P05067).
T2 construct: two Alzheimer's β-amyloid tilted peptides (29-40 and 29-42) on membrane models
Put plainly: fusion process induced by Alzheimer's β-amyloid tilted peptide 29-40 on membrane models. The settings on record: amyloid peptide 29-40. The procedure: (§4) Four fundamental studies using different tools such as conformational analysis, biophysical methods, NMR and two-hybrid assay were carried out.

The target in data set [6] is T3, Alzheimer's β-amyloid tilted peptide 29-42 (Homo sapiens, UniProt P05067).
T3 construct: two Alzheimer's β-amyloid tilted peptides (29-40 and 29-42) on membrane models
Put plainly: fusion process induced by Alzheimer's β-amyloid tilted peptide 29-42 on membrane models. Conditions: amyloid peptide 29-42. How it is done: as §4

Data set [7] relates to herpes simplex virus 1 (HSV1). Conditions: Vero cells culture, in vitro; cited from earlier work.
Setting [8] is: patients receiving piracetam from the first week of icterus.
Where [9] appears, read: piracetam introduced after incubation of peptide with liposomes, whatever the dose.
Where [10] appears, read: preincubation of piracetam before addition of the peptide.

Consider `CC[C@@H](C(N)=O)N1CCCC1=O` [levetiracetam, (S)-α-ethyl-2-oxo-1-pyrrolidineacetamide], for which the “inhibitory effect on the fusion process induced on LUV” value in the data set with viral tilted peptide is on record as “very clear inhibitory effect”.

Turning to `CC[C@H](C(N)=O)N1CCCC1=O` [(R)-(−) alpha-ethyl-2-oxo-1-pyrrolidineacetamide], in the data set on viral tilted peptide, the “inhibitory effect on the fusion process induced on LUV” value was “very clear inhibitory effect”.

In the case of `NC(=O)CN1CCCC1=O` [piracetam, 2-oxo-pyrrolidineacetamide], the Clinical tolerance result with acute viral hepatitis (acute hepatitis patients, 2.4 g daily (3×0.8 g/day)) is “excellent”; in the data set on hepatitis C virus (HCV) (chronic HCV patients, 10.8 g daily (3×3.6 g/d), 6 months) it was “excellent”. For the same compound, the “reduction of the icterus phase” value in the data set with acute viral hepatitis (compared to the control group, except for 6 patients out of 49) amounted to 50%. The “evolution in serum bilirubine levels” value with acute viral hepatitis (setting [8]) is listed as “positive evolution was especially observed”; in the data set with acute viral hepatitis (piracetam group vs control group, 2.4 g daily, p<0.0003), “very highly significantly reduced”. The “evolution in serum transaminases” value with acute viral hepatitis (setting [8]) is listed as “more pronounced”; in the data set on acute viral hepatitis (patients receiving piracetam, 2.4 g daily), “favourable, although non-significant”. The bilirubine levels result in the data set on acute viral hepatitis (patients receiving piracetam from the second week of icterus) is “not significantly reduced”. In addition, the “change of serum HCV-RNA” value in the data set on hepatitis C virus (HCV) (four of 6 patients, PCR, 10.8 g daily) was “decrease”. Moreover, the “decrease of serum HCV-RNA” value in the data set with hepatitis C virus (HCV) (the patient most recently infected (6 years), significant) is given as < 0.6 log. In addition, the “increase of serum HCV-RNA” value in the data set with hepatitis C virus (HCV) (two of 6 patients, PCR, 10.8 g daily) is < 10%. The “inhibition of the formation of syncitia” value in data set [1] and in data set [2] was “inhibited” in each case. In addition, the “inhibition of the fusion of LUV” value in data set [3] and in data set [4] was “inhibits the fusion of LUV” in each case. Besides, the “inhibition of the fusion process on membrane models” value in data set [5] (four studies overall) and in data set [6] (four studies overall) was “inhibit the fusion process” throughout. Further, the “inhibition of the fusion process” value in data set [5] (setting [9]) is given as “not able to inhibit”; in data set [5] (setting [10]) it was “inhibits almost completely”; in [6] (setting [9]), “not able to inhibit”; in [6] (setting [10]), “inhibits almost completely”. In data set [7], the “ability to stop the replication of HSV1” value is listed as “stop the replication”.

The record behind these values is patent US20040092575A1, “Use of certain substituted pyrrolidones such as piracetam in the treatment of viral and other diseases” (priority 2001, published 2004).
